Reference: a compilation of properties of binary mixtures (doi:10.1007/s10953-020-00967-3)

Test: xn = mol fraction of the nth substance listed
Conditions: 101 kPa

CN(C)C=O + CCCC[n+]1ccn(C)c1.F[B-](F)(F)F gave a viscosity (293.15 K, x2 = 0) of 0.88 mPa·s, a viscosity (298.15 K, x2 = 0) of 0.83 mPa·s and a viscosity (303.15 K, x2 = 0) of 0.78 mPa·s. It also gave a viscosity (308.15 K, x2 = 0) of 0.74 mPa·s, a viscosity (313.15 K, x2 = 0) of 0.7 mPa·s and a viscosity (318.15 K, x2 = 0) of 0.67 mPa·s. The viscosity (323.15 K, x2 = 0) was 0.63 mPa·s.
CCCC[n+]1ccn(C)c1.F[B-](F)(F)F + CN(C)C=O gave a viscosity (293.15 K, x1 = 0.16) of 5.71 mPa·s, a viscosity (293.15 K, x1 = 0.24) of 9 mPa·s and a viscosity (293.15 K, x1 = 0.34) of 13.7 mPa·s. The viscosity (293.15 K, x1 = 0.43) was 18.4 mPa·s, the viscosity (293.15 K, x1 = 0.55) was 26.7 mPa·s and the viscosity (293.15 K, x1 = 0.65) was 38.3 mPa·s. For the same compound, the viscosity (293.15 K, x1 = 0.74) was 55.2 mPa·s, the viscosity (293.15 K, x1 = 0.83) was 77 mPa·s and the viscosity (293.15 K, x1 = 0.94) was 105 mPa·s. The viscosity (293.15 K, x1 = 1) was 125 mPa·s, the viscosity (298.15 K, x1 = 0.08) was 2.56 mPa·s and the viscosity (298.15 K, x1 = 0.16) was 3.95 mPa·s. It also gave a viscosity (298.15 K, x1 = 0.24) of 5.82 mPa·s, a viscosity (298.15 K, x1 = 0.34) of 8.9 mPa·s and a viscosity (298.15 K, x1 = 0.43) of 12.1 mPa·s. For the same compound, the viscosity (298.15 K, x1 = 0.55) was 17.7 mPa·s, the viscosity (298.15 K, x1 = 0.65) was 27.6 mPa·s and the viscosity (298.15 K, x1 = 1) was 105 mPa·s. It also gave a viscosity (303.15 K, x1 = 0.08) of 2.3 mPa·s, a viscosity (303.15 K, x1 = 0.16) of 3.21 mPa·s and a viscosity (303.15 K, x1 = 0.24) of 4.17 mPa·s. The viscosity (303.15 K, x1 = 0.34) was 6.22 mPa·s, the viscosity (303.15 K, x1 = 0.43) was 8 mPa·s and the viscosity (303.15 K, x1 = 0.55) was 12.7 mPa·s. It also gave a viscosity (303.15 K, x1 = 0.65) of 20.7 mPa·s, a viscosity (303.15 K, x1 = 0.74) of 33.6 mPa·s and a viscosity (303.15 K, x1 = 0.83) of 51.9 mPa·s. It also gave a viscosity (303.15 K, x1 = 1) of 88 mPa·s, a viscosity (308.15 K, x1 = 0.08) of 2.27 mPa·s and a viscosity (308.15 K, x1 = 0.16) of 3.29 mPa·s. The viscosity (308.15 K, x1 = 0.24) was 3.9 mPa·s, the viscosity (308.15 K, x1 = 0.34) was 4.65 mPa·s and the viscosity (308.15 K, x1 = 0.55) was 9.6 mPa·s. It also gave a viscosity (308.15 K, x1 = 0.65) of 16 mPa·s, a viscosity (308.15 K, x1 = 0.74) of 26.2 mPa·s and a viscosity (308.15 K, x1 = 0.83) of 42.4 mPa·s. It also gave a viscosity (308.15 K, x1 = 0.94) of 61.9 mPa·s, a viscosity (308.15 K, x1 = 1) of 72 mPa·s and a viscosity (313.15 K, x1 = 0.08) of 1.95 mPa·s. For the same compound, the viscosity (313.15 K, x1 = 0.24) was 2.61 mPa·s, the viscosity (313.15 K, x1 = 0.34) was 2.49 mPa·s and the viscosity (313.15 K, x1 = 0.43) was 2.98 mPa·s. It also gave a viscosity (313.15 K, x1 = 0.55) of 5.74 mPa·s, a viscosity (313.15 K, x1 = 0.65) of 10.4 mPa·s and a viscosity (313.15 K, x1 = 0.83) of 32.6 mPa·s. The viscosity (313.15 K, x1 = 0.94) was 49.3 mPa·s, the viscosity (313.15 K, x1 = 1) was 57.7 mPa·s and the viscosity (318.15 K, x1 = 0.16) was 1.84 mPa·s. The viscosity (318.15 K, x1 = 0.24) was 1.59 mPa·s, the viscosity (318.15 K, x1 = 0.34) was 0.55 mPa·s and the viscosity (318.15 K, x1 = 0.65) was 5.23 mPa·s. It also gave a viscosity (318.15 K, x1 = 0.83) of 23.6 mPa·s, a viscosity (318.15 K, x1 = 0.94) of 37.5 mPa·s and a viscosity (318.15 K, x1 = 1) of 44 mPa·s. For the same compound, the viscosity (323.15 K, x1 = 0.16) was 1.63 mPa·s, the viscosity (323.15 K, x1 = 0.24) was 1.88 mPa·s and the viscosity (323.15 K, x1 = 0.34) was 1.38 mPa·s. It also gave a viscosity (323.15 K, x1 = 0.43) of 0.75 mPa·s, a viscosity (323.15 K, x1 = 0.55) of 0.5 mPa·s and a viscosity (323.15 K, x1 = 0.65) of 2.3 mPa·s. For the same compound, the viscosity (323.15 K, x1 = 0.83) was 15.9 mPa·s and the viscosity (323.15 K, x1 = 1) was 31.6 mPa·s.
